“Also recorded” adds a separate entry of the source.
Assays:
Assay type in all cases: cell-based
[1] = system: OG2 mouse embryonic fibroblasts; assay: Four-factor (Oct4, Sox2, Klf4, c-Myc) iPS induction, counting of Oct-GFP+ colonies by fluorescence microscope; conditions: four factors; for number of Oct-GFP+ colonies per well: 96-well plate
Method: Retrovirus were produced by transfecting plat-E cells with pMXs retroviral vectors containing the cDNAs of mouse Oct4, Sox2, Klf4 and c-Myc (purchased from Addgene) using Fugene HD (Roche) according to the manufacturer's protocol. After 48 hours, virus-containing supernatants were collected and filtered. The filtered supernatant was supplemented with 8 mg/L of polybrene, and then was used to infect mouse embryonic fibroblasts. The day when adding virus containing supernatants is counted as “day 0”. The fibroblasts infected with the virus were cultured in the mES medium, and iPS colonies were picked from day 14 to the day 18 after infection (four-factor infection experiment) or from day 20 to day 24 after infection (three-factor infection experiment), based on the expression of Oct-GFP and the typical morphology of stem cells.
(§1) The main method for calculating the reprogramming efficiency is the counting of the Oct-GFP^+ cells, including: 1. Using flow cytometry to determine the percentage of Oct-GFP^+ cells in the cell culture, which were infected with four factors for 10 to 12 days or with three factors for 14 to 16 days, or 2. directly counting the Oct-GFP^+ colonies in the wells by using fluorescence microscope.
a. Same volumes of the viruses carrying Oct4, Sox2, Klf4 or c-Myc were mixed and added to a total of 180,000 OG2 mouse embryonic fibroblasts in one well of a 6-well plate and cells were cultured in DMEM medium supplemented with 10% fetal bovine serum at 37° C. and 5% CO2. The day of viral infection was counted as “day 0”. On day 2, cells were trypsinized and resuspended in the mES medium, and then seeded at a density of 5,000 cells per well onto a 96-well plate pre-seeded with irradiated mouse embryonic fibroblast feeders. The mES medium supplemented with different concentrations of LiCl (0.6 mM, 1.2 mM, 2.5 mM, 5 mM, 10 mM, 20 mM and 40 mM) were used from day 3. On day 6, the medium was replaced with KSR medium supplemented with different concentrations of LiCl (0.6 mM, 1.2 mM, 2.5 mM, 5 mM, 10 mM, 20 mM and 40 mM). On day 8, the medium was replaced with KSR medium again.
b. Using the method described in step a, from day 8, Oct-GFP^+ colonies were observed and counted under an inverted fluorescence microscope every day, and pictures were also taken with a fluorescence microscope. FIG. 2A was representative images of wells in the 96-well plate on day 10, in which there were more GFP^+ colonies in 10 mM LiCl treated well than in untreated well. […] On day 8, GFP^+ colony could barely be observed in control wells, while approximately 10 GFP^+ colonies could be observed in 10 mM LiCl treated wells. On day 10, approximately 20 GFP^+ colonies could be observed in 10 mM LiCl treated wells, with induction efficiency 5 to 6 times of that of control wells'.

[2] = system: OG2 mouse embryonic fibroblasts; assay: Four-factor iPS induction, percentage of Oct-GFP+ cells by flow cytometry; conditions: four factors, 10 mM LiCl, day 12, three independent experiments
Method: (§2) Retrovirus were produced by transfecting plat-E cells with pMXs retroviral vectors containing the cDNAs of mouse Oct4, Sox2, Klf4 and c-Myc (purchased from Addgene) using Fugene HD (Roche) according to the manufacturer's protocol. After 48 hours, virus-containing supernatants were collected and filtered. The filtered supernatant was supplemented with 8 mg/L of polybrene, and then was used to infect mouse embryonic fibroblasts. The day when adding virus containing supernatants is counted as “day 0”. […]
as §1
(§3) a. […] The day of viral infection was counted as “day 0”. […]
c. Using the method described in step a, on day 12, cells were trypsinized and percentage of Oct-GFP^+ cells was determined by using flow cytometry. […]

[3] = system: OG2 mouse embryonic fibroblasts; assay: Three-factor (Oct4, Sox2, Klf4) iPS induction, counting of Oct-GFP+ colonies by fluorescence microscope; conditions: three factors, day 14
Method: as §2, §1, §3
b. Using the method described in step a, from day 12, Oct-GFP^+ colonies were observed and counted under an inverted fluorescence microscope every day, and pictures were also taken with a fluorescence microscope.

[4] = system: OG2 mouse embryonic fibroblasts; assay: Three-factor iPS induction, percentage of Oct-GFP+ cells by flow cytometry; conditions: three factors, 10 mM LiCl, day 16
Method: as §2, §1, §3
c. Using the method described in step a, on day 16, cells were trypsinized and the percentage of Oct-GFP^+ cells was determined by using flow cytometry.

## [Cl-].[Li+] [LiCl, lithium chloride]
[1]; 10 mM LiCl, day 8 after infection
  number of Oct-GFP+ colonies per well: approximately 10
[1]; 10 mM LiCl, day 10
  induction efficiency relative to control wells (colony count): 5 to 6 times
[1]; 10 mM LiCl, day 10 after infection
  number of Oct-GFP+ colonies per well: approximately 20
[1]; tested 0.6-40 mM
  most effective dose of LiCl (number of positive colonies): 10 mM
[2]
  induction efficiency increase versus wells without treatment (flow cytometry): 5 to 6 times
[3]; 5 mM or 10 mM LiCl
  induction efficiency of iPS cells versus control groups (colony count): enhanced; also recorded: significantly improved
[3]; 10 mM LiCl
  induction efficiency increase versus control groups (colony count): approximately 7 times
[4]
  increase of percentage of Oct-GFP+ cells versus control groups: approximately 60 times
  percentage of Oct-GFP+ cells: 14.5%

From patent US20130295579A1, “METHOD FOR PREPARING INDUCED PLURIPOTENT STEM CELLS AND MEDIUM USED FOR PREPARING INDUCED PLURIPOTENT STEM CELLS” (SHANGHAI INSTITUTE OF MATERIA MEDICA, CHINESE ACADEMY OF …, priority 2010, published 2013)
